Source: patent US20070225363A1, “Methods and Agents for Inhibiting Dynamin-Dependent Endocytosis” (the University of Newcastle Research Associates Ltd., priority 2003, published 2007)
Entries after “also recorded” stand apart in the source; their conditions may differ.

Key:
[1] = biological target: T1, Rab3A (Homo sapiens, UniProt P20336); experiment: [α-32P]-GTP binding to small G protein Rab3A; conditions: data not shown
T1 sequence (P20336 1-220): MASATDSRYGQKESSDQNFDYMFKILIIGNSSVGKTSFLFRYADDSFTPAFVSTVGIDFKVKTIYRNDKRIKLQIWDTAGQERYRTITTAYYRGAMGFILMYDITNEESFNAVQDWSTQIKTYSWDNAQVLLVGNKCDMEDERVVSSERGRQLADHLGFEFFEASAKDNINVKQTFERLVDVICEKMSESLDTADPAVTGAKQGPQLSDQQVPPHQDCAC
Experimental: (§1) Competition of these drugs with GTP for the active site of 4 small G proteins (Rab3A, Ras, Arf2, RalA) was also tested.

[2] = tested on: isolated nerve terminals (synaptosomes); experiment: Glutamate release assay (exocytosis) in synaptosomes; type: cell-based, rat; conditions: 30 mM KCl
Experimental: The glutamate release assay was performed using enzyme-linked fluorescent detection of released glutamate (Cousin and Robinson., 2000a, b). Briefly, synaptosomes (0.6 mg in 2 ml) were resuspended in either plus (1.2 mM CaCl2) or minus (1 mM EGTA) Ca^2+ Krebs-like solution (118.5 mM NaCl, 4.7 mM KCl, 1.18 mM MgCl2, 0.1 mM Na2HPO4, 20 mM Hepes, 10 mM glucose, pH 7.4) at 37° C. Experiments were started after addition of 1 mM NADP^+. After 1 minute 50 U of glutamate dehydrogenase was added and the synaptosome suspension was stimulated after 4 minutes with 30 mM KCl. Increases in fluorescence due to production of NADPH were monitored in a Perkin-Elmer LS-50B spectrofluorimeter at 340 nm excitation and 460 nm emission. Experiments were standardised by the addition of 4 nmol of glutamate. Data is presented as Ca^2+-dependent glutamate release, calculated as the difference between release in plus and minus Ca^2+ solution for identical stimulation conditions.

[3] = tested on: Arf2; experiment: [α-32P]-GTP binding to small G protein Arf2; conditions: data not shown
Experimental: as §1

[4] = tested on: HER14 cells; experiment: Texas Red-transferrin uptake in HER14 cells; type: cell-based; conditions: drug added 15 or 60 minutes before Tf-TxR
Experimental: (§2) Transferrin (Tf) uptake was analysed in Swiss 3T3 and HER14 cells based on methods previously described (van der Bliek et al., 1993). Briefly, cells were plated to 60% confluency in DMEM medium plus 10% foetal calf serum after which the cells were incubated overnight (8-10 hours) in DMEM minus foetal calf serum. Texas red-transferrin (Tf-TxR, Molecular Probes, Oregon) was added to a final concentration of 5 μg/ml and the cells incubated at 37° C. for 10 minutes. Cell surface staining was removed by incubating the cells in an ice cold acid wash solution (0.2 M acetic acid +0.5 M NaCl, pH 2.8) for 15 minutes. Cells were immediately fixed with 4% paraformaldehyde for 10 minutes then washed 3 times with PBS. Nuclei were stained using DAPI (Molecular Probes, Oregon). Slides were mounted using DABCO and the fluorescence was monitored using a Leica DMLB bright field microscope and SPOT digital camera.

[5] = biological target: T2, dynamin I (Ovis aries, UniProt A0ACI6NZN1); experiment: [α-32P]-GTP binding assay, dynamin I; design: species or system sheep
Experimental: (§3) The [α-^32P]-GTP-binding assay was performed in the wells of a 96-well microtitre plate. Dynamin (0.2 μg/well) was added to GTPase buffer and incubated for 10 min at 4 C in the dark. [α-^32P]-GTP (2 μCi/tube) was then added to the reaction and incubated for a further 10 min at 4 C. in the dark. The microtitre plate was then irradiated with a short wavelength ultraviolet lamp at […] for 30 min at a distance of 8 cm. The specificity of photolabelling was determined by comparing the labelling in the presence and absence of 1 mM cold GTP. Samples were then applied to nitrocellulose membranes by aspiration through the wells of a 24 well slot blotter. The nitrocellulose was washed 3 times with PBS and dried. Bound nucleotide was detected by a phosphorimager (Molecular Dynamics).

[6] = tested on: Ras; experiment: [α-32P]-GTP binding to small G protein Ras; conditions: data not shown
Experimental: as §1

[7] = biological target: T3, RalA (Homo sapiens, UniProt P11233); experiment: [α-32P]-GTP binding to small G protein RalA; conditions: data not shown
T3 sequence (P11233 1-206): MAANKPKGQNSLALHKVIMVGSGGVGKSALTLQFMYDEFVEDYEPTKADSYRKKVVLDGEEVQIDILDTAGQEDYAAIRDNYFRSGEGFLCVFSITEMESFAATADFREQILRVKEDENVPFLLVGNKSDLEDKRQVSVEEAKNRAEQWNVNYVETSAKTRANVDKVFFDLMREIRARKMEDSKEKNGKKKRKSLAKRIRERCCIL
Experimental: as §1

[8] = tested on: Swiss 3T3 cells; experiment: Texas Red-transferrin uptake in Swiss 3T3 cells; type: cell-based; conditions: drug added 15 or 60 minutes before Tf-TxR
Experimental: as §2

[9] = biological target: T2, dynamin I; experiment: Dynamin I GTPase assay ([γ-32P]GTP hydrolysis); type: biochemical, sheep
Experimental: (§4) The plasmid for GST-Amph2-SH3 (muscle Amph2) (Butler et al., 1997) was provided by Pieto DeCamilli, Yale, Connecticut, USA, in pGEX2T vectors. The plasmid was grown in E. coli and the GST-Amph2-SH3 fusion protein was purified on glutathione (GSH)-Sepharose by elution with 10 mM reduced GSH in 20 mM Tris-HCl, pH 7.5, dialysed against the same buffer without GSH and stored at 4° C. Dynamin was purified from sheep brain by extraction from the peripheral membrane fraction of whole brain (Robinson et al., 1993) and affinity purification on GST-Amph2-SH3-sepharose as previously described (Marks and McMahon., 1998), yielding 8 mg protein from 250 g sheep brain. Recombinant dynamin II was expressed in insect cells and was a gift from Dr Sandra Schmid (Scripps, San Diego, Calif.). Recombinant dynamin I lacking the PH domain (dynamin PH, provided by Robin Scaife) was expressed in insect cells using baculoviral infection (Salim et al., 1996).
(§5) Dynamin GTPase activity was determined by hydrolysis of [ ? -^32P]GTP by a method modified from that described previously (Robinson et al., 1993). Briefly, purified dynamin I or dynamin II (0.2 μg/tube) was incubated in GTPase buffer (10 mM Tris, 10 mM NaCl, 2 mM Mg^2+, 0.05% Tween 80, pH 7.4, 1 μg/ml leupeptin and 0.1 mM PMSF) and a GTP cocktail containing 0.3 mM GTP and 1.3 μCi [ ? -^32P]-GTP in the presence or absence of varying concentrations of inhibitors or DMSO vehicle for 10 min at 30 C. The final assay volume was 40 μl. Dynamin activity was measured as either basal or phospholipid-stimulated with the addition of 5 μg/ml L-phosphatidylserine. The reaction was terminated with 100 μl of GTPase stop buffer (2% formic add, 8% acetic acid, pH 1.9), followed by 600 μl of acid-washed charcoal solution (7% charcoal in acidic solution (w/v)) and 100 μl BSA (5 mg/ml). After centrifuging for 5 min (13,000 rpm at room temperature), 200 μl of each supernatant was counted in a -counter for the release of ^32Pi from [ ? -^32P]-GTP.

[10] = tested on: isolated nerve terminals (synaptosomes); experiment: Synaptic vesicle endocytosis, FM2-10 uptake in synaptosomes; type: cell-based, rat; conditions: 100 μM
Experimental: Isolated nerve terminals (synaptosomes) were prepared from rat cerebral cortex by centrifugation on discontinuous percoll gradients (Dunkley et al., 1986). Fractions 3 and 4 were pooled and used in all experiments. Endocytosis was measured using uptake of the fluorescent dye FM2-10 as previously described (Cousin and Robinson 2000a). Synaptosomes (0.6 mg in 2 ml) were incubated for 5 min at 37° C. in plus or minus Ca^2+ Krebs-like solution. FM2-10 ([…]) was added 1 min before stimulation with 30 mM KCl (S1). As FM2-10 is taken up by vesicles via endocytosis at the S1 phase of stimulation, synaptosomes were incubated with antagonists during this phase. […] After 2 min of stimulation synaptosomes were washed twice in plus Ca^2+ solution containing 1 mg/ml bovine serum albumin. The washing steps remove non-internalised FM2-10 and the tyrphostins. Washed synaptosomes were resuspended in plus Ca^2+ solution at 37° C., transferred to a fluorimeter cuvette and stimulated with a standard addition of 30 mM KCl (S2). The standard S2 stimulation releases all accumulated FM2-10 and allows endocytosis to be measured as the decrease in FM2-10 fluorescence due to dye release into solution (excitation 488 nm, emission 540 nm).
Endocytosis was calculated as the decrease in absolute fluorescence stimulated by 30 mM KCl at S2. […] Retrieval efficiency is a more accurate measure of endocytosis since it takes into account the amount of prior exocytosis. Retrieval efficiency was calculated as endocytosis/exocytosis, where endocytosis is defined as above and exocytosis as Ca^2+-dependent glutamate release after 2 min of stimulation. The retrieval efficiency value was normalised to a ratio of 1.0 for 30 mM KCl.

[11] = tested on: dynamin II; experiment: [α-32P]-GTP binding assay, dynamin II
Experimental: as §3

[12] = tested on: ΔPH domain dynamin I; experiment: GTPase assay with recombinant dynamin I lacking the PH domain; type: biochemical
Experimental: as §4
as §5, with “-^32P]-GTP. […]” for “-^32P]-GTP.”

T2 sequence (A0ACI6NZN1 entry or part of it): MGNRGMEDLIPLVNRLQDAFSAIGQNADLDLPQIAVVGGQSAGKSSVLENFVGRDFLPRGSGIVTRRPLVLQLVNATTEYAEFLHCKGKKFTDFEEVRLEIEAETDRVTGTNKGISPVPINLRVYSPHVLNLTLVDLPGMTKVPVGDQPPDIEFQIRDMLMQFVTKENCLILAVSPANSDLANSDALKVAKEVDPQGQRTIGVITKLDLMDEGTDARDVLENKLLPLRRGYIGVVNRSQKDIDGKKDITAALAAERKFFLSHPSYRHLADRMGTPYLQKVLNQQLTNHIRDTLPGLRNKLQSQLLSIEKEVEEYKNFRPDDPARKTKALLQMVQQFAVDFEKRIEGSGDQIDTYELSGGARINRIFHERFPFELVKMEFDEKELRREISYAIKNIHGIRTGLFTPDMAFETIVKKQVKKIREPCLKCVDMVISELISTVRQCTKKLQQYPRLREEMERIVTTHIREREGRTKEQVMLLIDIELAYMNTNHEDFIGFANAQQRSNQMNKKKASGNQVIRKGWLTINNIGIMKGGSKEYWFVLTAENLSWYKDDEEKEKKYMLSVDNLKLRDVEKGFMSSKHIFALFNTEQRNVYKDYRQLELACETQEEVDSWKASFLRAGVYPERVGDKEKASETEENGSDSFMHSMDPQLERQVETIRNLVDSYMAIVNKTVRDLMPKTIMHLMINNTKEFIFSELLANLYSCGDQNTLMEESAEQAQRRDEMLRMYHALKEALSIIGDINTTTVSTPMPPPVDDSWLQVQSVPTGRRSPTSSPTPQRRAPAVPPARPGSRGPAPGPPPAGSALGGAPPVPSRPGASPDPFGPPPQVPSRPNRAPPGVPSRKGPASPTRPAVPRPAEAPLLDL

N#C/C(=C\c1ccc(O)c(O)c1)C(N)=S [tyrphostin A47]
effect on [α-32P]-GTP binding to Rab3A [1]: neither drug affected
exocytosis (Ca2+-dependent glutamate release) [2]: no effect
effect on [α-32P]-GTP binding to Arf2 [3]: neither drug affected
internalisation of texas-red labelled transferrin into HER14 cells [4]: not as dramatically as bis-tyrphostin
[α-32P]-GTP binding to dynamin I in the presence of drug [5]: not seen to decrease; also recorded: not affected
effect on [α-32P]-GTP binding to Ras [6]: neither drug affected
effect on [α-32P]-GTP binding to RalA [7]: neither drug affected
internalisation of texas-red labelled transferrin into Swiss 3T3 cells [8]: not as dramatically as bis-tyrphostin
inhibitory potency on dynamin ([9]; freshly prepared solutions): no inhibitory potency
inhibitory potency on dynamin ([9]; stocks kept at room temperature for 24 hrs): weak potency
inhibition of synaptic vesicle endocytosis (SVE) ([10]; synaptosomes): did not
retrieval efficiency (endocytosis/exocytosis) ([10]; 1 indicates no drug effect): 0.95 (±0.05)

O[C@H](CS)[C@H](O)CS (racemic) [Dithiothreitol, dithiothreitol]
effect on dynamin GTPase activity ([9]; alone, data not shown): without effect

N#C/C(=C\c1ccc(O)c(O)c1)C(=O)N1CCN(C(=O)/C(C#N)=C/c2ccc(O)c(O)c2)CC1 [Compound 71]
dynamin inhibition ([9]; screen at ≦100 μM): no dynamin inhibition

COc1cc(C=C(C#N)C(=O)NCCCNC(=O)C(C#N)=Cc2cc(O)c(O)c(OC)c2)cc(O)c1O [Compound 24, 2-Cyano-N-{3-[2-cyano-3-(3,4-dihydroxy-methoxyphenyl)-acryloylamino]-propyl}-3-(3,4-dihydroxy-5-methoxyphenyl)-acrylamide]
IC50 ([9]; library 1 (dimeric) compounds): 5 ± 1 µM

CN(C)CCCn1cc(C2=C(c3c[nH]c4ccccc34)C(=O)NC2=O)c2ccccc21 [BIM I]
[α-32P]-GTP binding to dynamin II in the presence of drug [11]: compete with GTP
[α-32P]-GTP binding to dynamin I in the presence of drug [5]: compete with GTP
ability to inhibit GTPase activity of dynamin I lacking the PH domain [12]: lost its ability to inhibit
